Columns and labels:
Assay type in all cases: in vivo
[1] = tested on: Plutella xylostella (Diamond Back Moth); assay: Example B5: Activity against Plutella xylostella (diamond back moth), eggs, artificial diet; conditions: 192 h, application rate of 200 ppm, 8 days after infestation, read-out: effect in at least one of the two categories (mortality or growth inhibition)
Procedure: Example B5: Activity Against Plutella xylostella (Diamond Back Moth)
24-well microtiter plates with artificial diet were treated with aqueous test solutions prepared from 10′000 ppm DMSO stock solutions by pipetting. After drying, Plutella eggs were pipetted through a plastic stencil onto a gel blotting paper and the plate was closed with it. The samples were assessed for mortality and growth inhibition in comparison to untreated samples 8 days after infestation.

[2] = tested on: Bemisia tabaci (Cotton White Fly); assay: Example B1: Activity against Bemisia tabaci (cotton white fly), sprayed cotton leaf discs; conditions: foliar, 144 h, application rate of 200 ppm, adult white flies on cotton leaf discs, 6 days after incubation
Procedure: Example B1: Activity Against Bemisia tabaci (Cotton White Fly)
Cotton leaf discs were placed on agar in 24-well microtiter plates and sprayed with aqueous test solutions prepared from 10′000 ppm DMSO stock solutions. After drying the leaf discs were infested with adult white flies. The samples were checked for mortality 6 days after incubation.

[3] = tested on: Myzus persicae (Green Peach Aphid); assay: Example B6: Activity against Myzus persicae (green peach aphid), sprayed sunflower leaf discs; conditions: foliar, 144 h, application rate of 200 ppm, aphid population of mixed ages on sunflower leaf discs, 6 days after infestation
Procedure: Example B6: Activity Against Myzus persicae (Green Peach Aphid)
Sunflower leaf discs were placed on agar in a 24-well microtiter plate and sprayed with aqueous test solutions prepared from 10′000 ppm DMSO stock solutions. After drying, the leaf discs were infested with an aphid population of mixed ages. The samples were assessed for mortality 6 days after infestation.

[4] = tested on: Euschistus heros (Neotropical Brown Stink Bug); assay: Example B3: Activity against Euschistus heros (neotropical brown stink bug), sprayed soybean leaf; conditions: 120 h, application rate of 200 ppm, N-2 nymphs on soybean leaf, 5 days after infestation, read-out: effect in at least one of the two categories (mortality or growth inhibition)
Procedure: Example B3: Activity Against Euschistus heros (Neotropical Brown Stink Bug)
Soybean leaf on agar in 24-well microtiter plates were sprayed with aqueous test solutions prepared from 10′000 ppm DMSO stock solutions. After drying the leaf were infested with N-2 nymphs. The samples were assessed for mortality and growth inhibition in comparison to untreated samples 5 days after infestation.

[5] = tested on: Frankliniella occidentalis (Western Flower Thrips); assay: Example B4: Activity against Frankliniella occidentalis (western flower thrips), sprayed sunflower leaf discs; conditions: foliar, 168 h, application rate of 200 ppm, population of mixed ages on sunflower leaf discs, 7 days after infestation
Procedure: Example B4: Activity Against Frankliniella occidentalis (Western Flower Thrips)
Sunflower leaf discs were placed on agar in 24-well microtiter plates and sprayed with aqueous test solutions prepared from […] stock solutions. After drying the leaf discs were infested with a Frankliniella population of mixed ages. The samples were assessed for mortality 7 days after infestation.

[6] = tested on: Diabrotica balteata (Corn Root Worm); assay: Example B2: Activity against Diabrotica balteata (corn root worm), sprayed maize sprouts; conditions: 96 h, application rate of 200 ppm, L2 larvae on maize sprouts, 4 days after infestation, read-out: effect in at least one of the two categories (mortality or growth inhibition)
Procedure: Example B2: Activity Against Diabrotica balteata (Corn Root Worm)
Maize sprouts placed onto an agar layer in 24-well microtiter plates were treated with aqueous test solutions prepared from 10′000 ppm DMSO stock solutions by spraying. After drying, the plates were infested with L2 larvae (6 to 10 per well). The samples were assessed for mortality and growth inhibition in comparison to untreated samples 4 days after infestation.

[7] = tested on: Spodoptera littoralis (Egyptian Cotton Leaf Worm); assay: Example B9: Activity against Spodoptera littoralis (Egyptian cotton leaf worm), sprayed cotton leaf discs; conditions: foliar, 72 h, application rate of 200 ppm, L1 larvae on cotton leaf discs, 3 days after infestation
Procedure: Example B9: Activity Against Spodoptera littoralis (Egyptian Cotton Leaf Worm)
Cotton leaf discs were placed onto agar in 24-well microtiter plates and sprayed with aqueous test solutions prepared from 10′000 ppm DMSO stock solutions. After drying the leaf discs were infested with five L1 larvae. The samples were assessed for mortality, anti-feeding effect, and growth inhibition in comparison to untreated samples 3 days after infestation. Control of Spodoptera littoralis by a test sample is given when at least one of the categories mortality, anti-feedant effect, and growth inhibition is higher than the untreated sample.

[8] = tested on: Plutella xylostella (Diamond Back Moth); assay: Example B8: Activity against Plutella xylostella (diamond back moth), L2 larvae, artificial diet; conditions: 120 h, application rate of 200 ppm, 5 days after infestation, read-out: effect in at least one of the two categories (mortality or growth inhibition)
Procedure: Example B8: Activity Against Plutella xylostella (Diamond Back Moth)
24-well microtiter plates with artificial diet were treated with aqueous test solutions prepared from 10′000 ppm DMSO stock solutions by pipetting. After drying, the plates were infested with L2 larvae (10 to 15 per well). The samples were assessed for mortality and growth inhibition in comparison to untreated samples 5 days after infestation.

[9] = tested on: Tetranychus urticae (Two-Spotted Spider Mite); assay: Example B10: Activity against Tetranychus urticae (two-spotted spider mite), sprayed bean leaf discs; conditions: foliar, 192 h, application rate of 200 ppm, mixed population (mobile stages) on bean leaf discs, 8 days after infestation
Procedure: Example B10: Activity Against Tetranychus urticae (Two-Spotted Spider Mite)
Bean leaf discs on agar in 24-well microtiter plates were sprayed with aqueous test solutions prepared from 10′000 ppm DMSO stock solutions. After drying the leaf discs were infested with a mite population of mixed ages. The samples were assessed for mortality on mixed population (mobile stages) 8 days after infestation.

[10] = tested on: Nilaparvata lugens (Brown Plant Hopper); assay: Example B11: Activity against Nilaparvata lugens (brown plant hopper), larvicide, feeding/contact; conditions: 168 h, application rate of 50 ppm, N3 nymphs on sprayed rice plants, 7 days after the treatment
Procedure: Example B11: Activity Against Nilaparvata lugens (Brown Plant Hopper) Larvicide, Feeding/Contact
Rice plants were treated with the diluted test solutions in a spray chamber. After drying plants were infested with ˜20 N3 nymphs. 7 days after the treatment samples were assessed for mortality and growth regulation.

[11] = tested on: Nilaparvata lugens (Brown Plant Hopper); assay: Example B12: Activity against Nilaparvata lugens (brown plant hopper), larvicide, systemic into water; conditions: 168 h, application rate of 12.5 ppm, systemic into nutritive solution, rice plants, N3 nymphs, 7 days after infestation
Procedure: Example B12: Activity Against Nilaparvata lugens (Brown Plant Hopper) Larvicide, Systemic into Water
Rice plants cultivated in a nutritive solution were treated with the diluted test solutions into nourishing cultivation system. 1 day after application plants were infested with ˜20 N3 nymphs. 7 days after infestation samples were assessed for mortality and growth regulation.

CCS(=O)(=O)c1cc(OC(C)(C)C#N)cnc1-c1nc2cc(C(F)(F)F)cnc2n1C [Compound P3, 2-[[5-ethylsulfonyl-6-[3-methyl-6-(trifluoromethyl)imidazo[4,5-b]pyridin-2-yl]-3-pyridyl]oxy]-2-methyl-propanenitrile]
≥ 80%: percent effect (mortality or growth inhibition) at 200 ppm [1] | mortality at 200 ppm [2] | mortality at 200 ppm [3] | percent effect (mortality or growth inhibition) at 200 ppm [4] | mortality at 200 ppm [5] | percent effect (mortality or growth inhibition) at 200 ppm [6] | percent control (mortality, anti-feedant effect or growth inhibition) at 200 ppm [7]

CCn1c(C(F)(F)F)cc2nc(-c3ncc(OC(C)(C)C#N)cc3S(=O)(=O)CC)n(C)c2c1=O [Compound P6, 2-[[6-[5-ethyl-3-methyl-4-oxo-6-(trifluoromethyl)imidazo[4,5-c]pyridin-2-yl]-5-ethylsulfonyl-3-pyridyl]oxy]-2-methyl-propanenitrile]
≥ 80%: percent effect (mortality or growth inhibition) at 200 ppm [8] | mortality at 200 ppm [2] | mortality at 200 ppm [3] | percent effect (mortality or growth inhibition) at 200 ppm [4] | mortality at 200 ppm [5] | percent effect (mortality or growth inhibition) at 200 ppm [6] | percent control (mortality, anti-feedant effect or growth inhibition) at 200 ppm [7]

CCS(=O)(=O)c1cc(OC(C)(C)C#N)cnc1-c1nc2cc(C(F)(F)F)n(C3CC3)c(=O)c2n1C [Compound P7, 2-[[6-[5-cyclopropyl-3-methyl-4-oxo-6-(trifluoromethyl)imidazo[4,5-c]pyridin-2-yl]-5-ethylsulfonyl-3-pyridyl]oxy]-2-methyl-propanenitrile]
≥ 80%: percent effect (mortality or growth inhibition) at 200 ppm [8] | percent effect (mortality or growth inhibition) at 200 ppm [4] | mortality at 200 ppm [5] | percent effect (mortality or growth inhibition) at 200 ppm [6] | percent control (mortality, anti-feedant effect or growth inhibition) at 200 ppm [7]

CCS(=O)(=O)c1cc(OC(C)(C)C#N)cnc1-c1cn2ccc(C(F)(F)F)cc2n1 [Compound P8, 2-[[5-ethylsulfonyl-6-[7-(trifluoromethyl)imidazo[1,2-a]pyridin-2-yl]-3-pyridyl]oxy]-2-methyl-propanenitrile]
≥ 80%: percent effect (mortality or growth inhibition) at 200 ppm [8] | mortality at 200 ppm [3] | percent effect (mortality or growth inhibition) at 200 ppm [4] | mortality at 200 ppm [9] | mortality at 200 ppm [5] | percent effect (mortality or growth inhibition) at 200 ppm [6] | percent control (mortality, anti-feedant effect or growth inhibition) at 200 ppm [7]

CCS(=O)(=O)c1cc(OC(C)(C)C#N)cnc1-c1cn2ncc(C(F)(F)F)cc2n1 [Compound P9, 2-[[5-ethylsulfonyl-6-[7-(trifluoromethyl)imidazo[1,2-b]pyridazin-2-yl]-3-pyridyl]oxy]-2-methyl-propanenitrile]
≥ 80%: percent effect (mortality or growth inhibition) at 200 ppm [8] | mortality at 200 ppm [2] | mortality at 50 ppm [10] | mortality at 200 ppm [3] | mortality at 200 ppm [5] | percent effect (mortality or growth inhibition) at 200 ppm [6] | mortality at 12.5 ppm [11] | percent control (mortality, anti-feedant effect or growth inhibition) at 200 ppm [7]

CCS(=O)(=O)c1cc(OC(C)(C)C#N)ccc1-n1cc2cnc(C(F)(F)F)cc2n1 [Compound P10, 2-[3-ethylsulfonyl-4-[6-(trifluoromethyl)pyrazolo[4,3-c]pyridin-2-yl]phenoxy]-2-methyl-propanenitrile]
≥ 80%: percent effect (mortality or growth inhibition) at 200 ppm [8] | mortality at 200 ppm [2] | mortality at 50 ppm [10] | mortality at 200 ppm [3] | percent effect (mortality or growth inhibition) at 200 ppm [4] | mortality at 200 ppm [9] | mortality at 200 ppm [5] | percent effect (mortality or growth inhibition) at 200 ppm [6] | mortality at 12.5 ppm [11] | percent control (mortality, anti-feedant effect or growth inhibition) at 200 ppm [7]

CCS(=O)(=O)c1cc(OC(C)(C)C#N)ccc1-c1nc2cc(C(F)(F)F)nnc2n1C [Compound P12, 2-[3-ethylsulfonyl-4-[7-methyl-3-(trifluoromethyl)imidazo[4,5-c]pyridazin-6-yl]phenoxy]-2-methyl-propanenitrile]
≥ 80%: percent effect (mortality or growth inhibition) at 200 ppm [8] | mortality at 200 ppm [2] | mortality at 200 ppm [3] | percent effect (mortality or growth inhibition) at 200 ppm [4] | mortality at 200 ppm [5] | percent effect (mortality or growth inhibition) at 200 ppm [6] | percent control (mortality, anti-feedant effect or growth inhibition) at 200 ppm [7]

CCS(=O)(=O)c1cc(OC(C)(C)C#N)cnc1-c1nc2cc(SC(F)(F)F)ccc2n1C [Compound P13, 2-[[5-ethylsulfonyl-6-[1-methyl-5-(trifluoromethylsulfanyl)benzimidazol-2-yl]-3-pyridyl]oxy]-2-methyl-propanenitrile]
≥ 80%: percent effect (mortality or growth inhibition) at 200 ppm [1] | mortality at 200 ppm [2] | mortality at 200 ppm [3] | percent effect (mortality or growth inhibition) at 200 ppm [4] | mortality at 200 ppm [5] | percent effect (mortality or growth inhibition) at 200 ppm [6] | percent control (mortality, anti-feedant effect or growth inhibition) at 200 ppm [7]

CCS(=O)(=O)c1cc(OC(C)(C)C#N)cnc1-c1nc2cc(S(=O)(=O)C(F)(F)F)ccc2n1C [Compound P14, 2-[[5-ethylsulfonyl-6-[1-methyl-5-(trifluoromethylsulfonyl)benzimidazol-2-yl]-3-pyridyl]oxy]-2-methyl-propanenitrile]
≥ 80%: percent effect (mortality or growth inhibition) at 200 ppm [1] | mortality at 200 ppm [2] | mortality at 200 ppm [3] | percent effect (mortality or growth inhibition) at 200 ppm [4] | mortality at 200 ppm [5] | percent effect (mortality or growth inhibition) at 200 ppm [6] | percent control (mortality, anti-feedant effect or growth inhibition) at 200 ppm [7]
